The NIST ThermoML archive (doi:10.1016/j.fluid.2018.06.004)
Numbers after ± are expanded uncertainties.

Conditions: 101.33 kPa, Liquid, transient hot wire

`CCCCCCCCCC(=O)OCC` [ethyl decanoate] showed a thermal conductivity (270 K) of 0.1483 ± 0.006 W/m/K, a thermal conductivity (279.98 K) of 0.1463 ± 0.0059 W/m/K and a thermal conductivity (289.85 K) of 0.1442 ± 0.0058 W/m/K. The thermal conductivity (299.64 K) was 0.1422 ± 0.0057 W/m/K, the thermal conductivity (309.6 K) was 0.14 ± 0.0056 W/m/K and the thermal conductivity (319.72 K) was 0.1375 ± 0.0055 W/m/K. For the same molecule, the thermal conductivity (329.53 K) was 0.1355 ± 0.0055 W/m/K, the thermal conductivity (339.49 K) was 0.1332 ± 0.0054 W/m/K and the thermal conductivity (349.51 K) was 0.1307 ± 0.0053 W/m/K. The thermal conductivity (359.46 K) was 0.1284 ± 0.0052 W/m/K, the thermal conductivity (369.3 K) was 0.1266 ± 0.0051 W/m/K and the thermal conductivity (374.44 K) was 0.1248 ± 0.005 W/m/K. It also gave a thermal conductivity (379.49 K) of 0.1238 ± 0.005 W/m/K, a thermal conductivity (389.25 K) of 0.1214 ± 0.0049 W/m/K and a thermal conductivity (400.44 K) of 0.1195 ± 0.0048 W/m/K.

With `CCCCCCCCCCCCCC(=O)OCC` [ethyl tetradecanoate] the thermal conductivity (290.64 K) was 0.1515 ± 0.0061 W/m/K, the thermal conductivity (298.29 K) was 0.1501 ± 0.006 W/m/K and the thermal conductivity (307.33 K) was 0.1481 ± 0.006 W/m/K. It also gave a thermal conductivity (315.2 K) of 0.1465 ± 0.0059 W/m/K, a thermal conductivity (324.22 K) of 0.1448 ± 0.0058 W/m/K and a thermal conductivity (333.17 K) of 0.1426 ± 0.0057 W/m/K. It also gave a thermal conductivity (340.99 K) of 0.1406 ± 0.0057 W/m/K, a thermal conductivity (350.11 K) of 0.1383 ± 0.0056 W/m/K and a thermal conductivity (359.07 K) of 0.137 ± 0.0055 W/m/K. For the same molecule, the thermal conductivity (367.97 K) was 0.1342 ± 0.0054 W/m/K, the thermal conductivity (377.86 K) was 0.1326 ± 0.0053 W/m/K and the thermal conductivity (389.06 K) was 0.1297 ± 0.0052 W/m/K. The thermal conductivity (393.88 K) was 0.1286 ± 0.0052 W/m/K.

Molecule `CCCCCCCC(=O)OCC` [ethyl octanoate] has a thermal conductivity (254.76 K) of 0.1484 ± 0.006 W/m/K, a thermal conductivity (264.72 K) of 0.1462 ± 0.0059 W/m/K and a thermal conductivity (274.7 K) of 0.144 ± 0.0058 W/m/K. For the same molecule, the thermal conductivity (284.63 K) was 0.1422 ± 0.0057 W/m/K, the thermal conductivity (294.53 K) was 0.1405 ± 0.0057 W/m/K and the thermal conductivity (300.47 K) was 0.1387 ± 0.0056 W/m/K. The thermal conductivity (307.05 K) was 0.1366 ± 0.0055 W/m/K, the thermal conductivity (310.45 K) was 0.1356 ± 0.0055 W/m/K and the thermal conductivity (320.37 K) was 0.1336 ± 0.0054 W/m/K. For the same molecule, the thermal conductivity (330.4 K) was 0.1312 ± 0.0053 W/m/K, the thermal conductivity (340.34 K) was 0.1286 ± 0.0052 W/m/K and the thermal conductivity (350.38 K) was 0.1268 ± 0.0051 W/m/K. The thermal conductivity (360.32 K) was 0.1234 ± 0.005 W/m/K, the thermal conductivity (370.25 K) was 0.1211 ± 0.0049 W/m/K and the thermal conductivity (380.17 K) was 0.1188 ± 0.0048 W/m/K. It also gave a thermal conductivity (390.39 K) of 0.1167 ± 0.0047 W/m/K and a thermal conductivity (400.37 K) of 0.1142 ± 0.0046 W/m/K.

With `CCO` [ethanol] the thermal conductivity (276.51 K) was 0.1719 ± 0.0069 W/m/K, the thermal conductivity (280.8 K) was 0.1687 ± 0.0068 W/m/K and the thermal conductivity (284.27 K) was 0.1699 ± 0.0068 W/m/K. For the same molecule, the thermal conductivity (290.37 K) was 0.1677 ± 0.0067 W/m/K and the thermal conductivity (293.43 K) was 0.1658 ± 0.0067 W/m/K.

In the case of `O` [water], the thermal conductivity (293.09 K) is reported as 0.6056 ± 0.024 W/m/K, the thermal conductivity (299.55 K) is reported as 0.613 ± 0.025 W/m/K and the thermal conductivity (309.83 K) is reported as 0.6313 ± 0.025 W/m/K. It also gave a thermal conductivity (314.96 K) of 0.6399 ± 0.026 W/m/K, a thermal conductivity (319.56 K) of 0.6399 ± 0.026 W/m/K and a thermal conductivity (324.64 K) of 0.6492 ± 0.026 W/m/K. The thermal conductivity (332.53 K) was 0.6555 ± 0.026 W/m/K, the thermal conductivity (339.33 K) was 0.657 ± 0.026 W/m/K and the thermal conductivity (340.41 K) was 0.6654 ± 0.027 W/m/K. It also gave a thermal conductivity (349.41 K) of 0.6723 ± 0.027 W/m/K.

With `CCCCCCCCCCCC(=O)OCC` [ethyl dodecanoate] the thermal conductivity (274.73 K) was 0.151 ± 0.0061 W/m/K, the thermal conductivity (284.69 K) was 0.1489 ± 0.006 W/m/K and the thermal conductivity (294.56 K) was 0.1471 ± 0.0059 W/m/K. The thermal conductivity (304.59 K) was 0.1446 ± 0.0058 W/m/K, the thermal conductivity (314.47 K) was 0.1424 ± 0.0057 W/m/K and the thermal conductivity (324.41 K) was 0.1399 ± 0.0056 W/m/K. For the same molecule, the thermal conductivity (334.28 K) was 0.1377 ± 0.0055 W/m/K, the thermal conductivity (344.09 K) was 0.1362 ± 0.0055 W/m/K and the thermal conductivity (349.21 K) was 0.1343 ± 0.0054 W/m/K. For the same molecule, the thermal conductivity (354.09 K) was 0.1334 ± 0.0054 W/m/K, the thermal conductivity (359.09 K) was 0.1321 ± 0.0053 W/m/K and the thermal conductivity (369.13 K) was 0.1296 ± 0.0052 W/m/K. For the same molecule, the thermal conductivity (379.1 K) was 0.1275 ± 0.0051 W/m/K, the thermal conductivity (389.1 K) was 0.1253 ± 0.005 W/m/K and the thermal conductivity (400.08 K) was 0.1229 ± 0.005 W/m/K.

Work on `CCCCCCC(=O)OCC` [ethyl heptanoate] yielded a thermal conductivity (250.38 K) of 0.1482 ± 0.006 W/m/K, a thermal conductivity (260.21 K) of 0.1463 ± 0.0059 W/m/K and a thermal conductivity (270.16 K) of 0.1441 ± 0.0058 W/m/K. For the same molecule, the thermal conductivity (280.02 K) was 0.1414 ± 0.0057 W/m/K, the thermal conductivity (289.93 K) was 0.1397 ± 0.0057 W/m/K and the thermal conductivity (299.84 K) was 0.137 ± 0.0055 W/m/K. For the same molecule, the thermal conductivity (309.9 K) was 0.1343 ± 0.0054 W/m/K, the thermal conductivity (319.73 K) was 0.1321 ± 0.0054 W/m/K and the thermal conductivity (329.73 K) was 0.1294 ± 0.0052 W/m/K. It also gave a thermal conductivity (337.72 K) of 0.127 ± 0.0051 W/m/K, a thermal conductivity (341.71 K) of 0.1259 ± 0.0051 W/m/K and a thermal conductivity (347.65 K) of 0.1251 ± 0.0051 W/m/K. It also gave a thermal conductivity (353.6 K) of 0.1235 ± 0.005 W/m/K, a thermal conductivity (363.5 K) of 0.121 ± 0.0049 W/m/K and a thermal conductivity (373.51 K) of 0.1183 ± 0.0048 W/m/K. The thermal conductivity (383.64 K) was 0.1155 ± 0.0047 W/m/K and the thermal conductivity (393.46 K) was 0.1139 ± 0.0046 W/m/K.
